Source: paper PMC10305181, “A VEGFB-Based Peptidomimetic Inhibits VEGFR2-Mediated PI3K/Akt/mTOR and PLCγ/ERK Signaling and Elicits Apoptotic, Antiangiogenic, and Antitumor Activities” (Pharmaceuticals, 2023)

Experiments:
[1] = target: VEGFR2 extracellular domain (UniProt P35968); assay: ELISA; ELISA-based displacement assay as in ref. 51 with modifications; 20 ng VEGFR2 extracellular domain; biotinylated VEGF (btVEGF165) displaced by peptide; C-VGB3 0-316 μM, L-VGB3 up to 3 mM; triplicate
[2] = test system: extracellular domain of VEGFR2 (KDR); assay: ELISA-based displacement (competition binding) of biotinylated VEGF from VEGFR2
Description: Figure 3 The binding affinity of C-VGB3 to VEGFR2. (A) ELISA-based displacement assay. The gradient concentrations of C-VGB3 (0, 0.316, 1, 3.16, 10, 31.6, 100, and 316 μM) were used in the assay. […] Error bars denote ± SEM. n = 3; ** p = 0.001, *** p = 0.0001, **** p < 0.0001, ns = not significant; one-way ANOVA. (B) A three-dimensional (produced by UCSF chimera software version 1.12) and a two-dimensional representation (produced by LigPlot software) of interactions in the C-VGB3/VEGFR2 complex is shown on the left and the right, respectively.
A displacement assay was conducted as reported previously with some modifications, including using 20 ng of the VEGFR2 extracellular domains (R&D Systems, Minneapolis, MN, USA). Peptide compounds were assayed three times per experiment.
Figure S6. Evaluating the binding capability of L-VGB3 to VEGFR2
(A) ELISA-based displacement assay. The gradient concentrations of L-VGB3 (3.16, 10, […]
to the extracellular domain of VEGFR2 at applied concentrations. (B) Two-dimensional representation of interactions (produced by LigPlot software) in L-VGB3/VEGFR2 […]

[3] = test system: 4T1 murine MCT in female BALB/c mice; assay type: in vivo; conditions: 0.2 mg·kg^−1 i.v. once every 2 days, day 13 to 33; n = 6
Description: (§1) Figure 2 Loop formation is important for the antitumor activity of VGB3. (A) To investigate the efficacy of VGB3 peptides in vivo 13 days after transplantation of a 4T1 murine MCT into female BALB/c mice (the tumor volume ~150 mm^3), the treatment groups received 0.2 mg·kg^−1 (once every 2 days, i.v.) of either the C-VGB3 or L-VGB3 and the control group received PBS for 20 days. Error bars denote ± SEM. n = 6; **** p < 0.0001, ns = not significant; two-way ANOVA. (B) Investigation of C-VGB3 and L-VGB3 effects on mice weight. […] (C,D) Immunohistochemical (IHC) analyses of CD31 and Ki67 for the C-VGB3-, L-VGB3- and PBS-treated tumors. For IHC staining, the sections of tumor tissues were incubated with the primary mouse monoclonal antibodies for CD31 (1:2000 (v/v)) and Ki67 (5 µg·mL^−1). […] Photographs were taken at 40× magnification. Error bars denote ± SEM. n = 3; * 0.02 ≤ p ≤ 0.04, ns = not significant; one-way ANOVA.
The antitumor efficacy of the peptides was investigated as described previously. Thirteen days after implanting, tumor (~150 mm^3)-bearing mice were grouped randomly into control and treated animals (6/group). […] The volume of tumors was calculated as 0.52 × length × width^2. In addition, changes in the weight of animals were recorded every 2 days.

[4] = body weight / tolerability of treated 4T1 tumor-bearing mice; assay type: in vivo; conditions: 0.2 mg·kg^−1 i.v. once every 2 days
Description: as §1
The antitumor efficacy of the peptides was investigated as described previously. Thirteen days after implanting, tumor (~150 mm^3)-bearing mice were grouped randomly into control and treated animals (6/group). From day 13 to day 33, the treatment group received cyclic or linear VGB3 (0.2 mg·kg^−1), whereas the control group received an equal volume of PBS (i.v., once every two days). The volume of tumors was calculated as 0.52 × length × width^2. In addition, changes in the weight of animals were recorded every 2 days.

Ki67-positive cells = assay: Ki67 immunohistochemistry of 4T1 tumors (proliferation); assay type: in vivo, murine; conditions: 0.2 mg·kg^−1 i.v.; n = 3
Description: as §1
For immunohistochemistry staining, deparaffinized tumor sections were incubated overnight at 4 °C with mouse monoclonal primary anti-Ki67 (5 µg·mL^−1) or anti-CD31 (1:2000 (v/v)). The antigens were detected using 3,3-diaminobenzidine. All images were captured and analyzed with an Olympus BX51 microscope (Olympus America, New York, NY, USA).

HUVE and 4T1 cell lines = assay: MTT assay, HUVE and 4T1 cell lines (linear vs cyclic peptide, not separated); assay type: cell-based; conditions: cell line not specified at the place; 0–1.81 μM, 24 and 48 h
Description: The effects of C-VGB3 and L-VGB3 on the cell survival of HUVE and 4T1 cell lines were investigated using the MTT assay, as previously described, with some modifications. Cells were incubated with (0–1.81 μM) or without the peptide in the presence (20 ng·mL^−1) or in the absence of VEGF (Sigma-Aldrich, St. Louis, MO, USA). After 24 and 48 h of incubation at 37 °C, the absorbance at 570 nm was recorded using an ELISA plate reader (Space Fax 2100, Awareness, Palm City, FL, USA). The tests were repeated three times.

Chain of UniProt P35968 (P35968 20-764): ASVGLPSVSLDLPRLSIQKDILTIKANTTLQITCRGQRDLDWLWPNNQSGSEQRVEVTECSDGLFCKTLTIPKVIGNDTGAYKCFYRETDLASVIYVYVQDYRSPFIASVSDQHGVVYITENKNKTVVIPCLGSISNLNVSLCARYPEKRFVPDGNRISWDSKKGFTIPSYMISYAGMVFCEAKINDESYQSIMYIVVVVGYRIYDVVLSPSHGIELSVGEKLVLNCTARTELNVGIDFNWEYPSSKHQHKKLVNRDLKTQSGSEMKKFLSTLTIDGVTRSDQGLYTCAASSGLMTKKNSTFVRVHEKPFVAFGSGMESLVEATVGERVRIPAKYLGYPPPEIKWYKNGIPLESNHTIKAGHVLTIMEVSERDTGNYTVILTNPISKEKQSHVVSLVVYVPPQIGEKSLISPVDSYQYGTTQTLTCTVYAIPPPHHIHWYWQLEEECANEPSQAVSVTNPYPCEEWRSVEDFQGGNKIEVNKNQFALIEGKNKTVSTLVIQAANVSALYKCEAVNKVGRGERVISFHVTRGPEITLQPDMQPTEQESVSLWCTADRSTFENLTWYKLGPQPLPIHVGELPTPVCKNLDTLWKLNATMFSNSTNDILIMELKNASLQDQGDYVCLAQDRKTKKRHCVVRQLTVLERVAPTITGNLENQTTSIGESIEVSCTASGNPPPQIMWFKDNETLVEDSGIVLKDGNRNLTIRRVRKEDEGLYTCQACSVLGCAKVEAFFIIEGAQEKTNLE

Substance: C-VGB3 (cyclic VGB3) (peptide)
- percent displacement of btVEGF165 at 100 μM C-VGB3 [1]: 58%

Substance: H-ECRPPDDGLC-OH (cysteine pairing not given here) [L-VGB3, linear structure of VGB3]
- binding to VEGFR2 extracellular domain ([2]; 3 mM, competition binding assay): no measurable binding
- binding to VEGFR2 extracellular domain ([2]; 3.16-3160 μM, ELISA-based displacement assay): no binding
- inhibition of 4T1 MCT (tumor growth), in words [3]: no effect
- toxicity at this dosage (weight gain) ([4]; three weeks): not toxic
- mice weight vs control groups ([4]; two-way ANOVA): no significant differences
- decrease in Ki67-positive cells, in words (Ki67-positive cells): ineffective
- antiproliferative property (HUVE and 4T1 cell lines): abolished
